Results published in patent publication US9987276B2 (Celgene CAR LLC, priority 2008, dated 2018).
Read-outs that look alike come from different tables or passages of the source.

What was measured:
BTK [1] = target: T1, BTK (Homo sapiens (Human), UniProt Q06187); assay: Omnia assay for potency assessment against BTK; assay type: biochemical; conditions: [BTK]=5 nM, Omnia assay; read-out: BTK Inhibition (IC50)
Procedure: The modified BTK-optimized reagent conditions for the above protocol are:
[BTK]=5 nM, [ATP]=[…], [Y5-Sox]=[…] (ATP KMapp˜[…]).

ITK = ITK (Homo sapiens (Human), UniProt Q08881); assay: Omnia assay for potency assessment against active forms of ITK kinase; assay type: biochemical; conditions: [ITK]=10 nM, [ATP]=25, [Y6-Sox]=10 μM; read-out: ITK Inhibition
ITK, sequence (Q08881 whole entry): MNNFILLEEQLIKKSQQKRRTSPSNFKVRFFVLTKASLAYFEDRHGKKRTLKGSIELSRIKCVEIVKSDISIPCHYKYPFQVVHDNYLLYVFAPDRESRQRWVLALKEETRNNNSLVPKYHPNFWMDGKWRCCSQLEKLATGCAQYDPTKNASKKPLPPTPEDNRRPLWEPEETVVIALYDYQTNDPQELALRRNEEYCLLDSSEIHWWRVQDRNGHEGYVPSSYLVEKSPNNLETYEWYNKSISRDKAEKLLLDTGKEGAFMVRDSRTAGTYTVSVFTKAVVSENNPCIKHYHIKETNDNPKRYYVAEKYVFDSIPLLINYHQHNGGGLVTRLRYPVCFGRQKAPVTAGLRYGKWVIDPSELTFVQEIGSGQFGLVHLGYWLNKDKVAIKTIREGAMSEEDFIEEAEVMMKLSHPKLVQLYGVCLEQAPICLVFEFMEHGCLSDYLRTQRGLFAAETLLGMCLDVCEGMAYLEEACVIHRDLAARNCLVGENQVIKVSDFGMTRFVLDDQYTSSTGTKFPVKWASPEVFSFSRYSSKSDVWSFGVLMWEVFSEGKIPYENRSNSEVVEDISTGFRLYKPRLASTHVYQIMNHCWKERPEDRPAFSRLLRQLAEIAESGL
Procedure: [ITK]=10 nM, [ATP]=25 [Y6-Sox]=10 μM (ATP KMapp=33 μM).

EGFR-WT = EGFR-WT (Homo sapiens (Human), UniProt P00533); assay: Omnia assay for potency assessment against EGFR (WT)
EGFR-WT, sequence (P00533 668-1210): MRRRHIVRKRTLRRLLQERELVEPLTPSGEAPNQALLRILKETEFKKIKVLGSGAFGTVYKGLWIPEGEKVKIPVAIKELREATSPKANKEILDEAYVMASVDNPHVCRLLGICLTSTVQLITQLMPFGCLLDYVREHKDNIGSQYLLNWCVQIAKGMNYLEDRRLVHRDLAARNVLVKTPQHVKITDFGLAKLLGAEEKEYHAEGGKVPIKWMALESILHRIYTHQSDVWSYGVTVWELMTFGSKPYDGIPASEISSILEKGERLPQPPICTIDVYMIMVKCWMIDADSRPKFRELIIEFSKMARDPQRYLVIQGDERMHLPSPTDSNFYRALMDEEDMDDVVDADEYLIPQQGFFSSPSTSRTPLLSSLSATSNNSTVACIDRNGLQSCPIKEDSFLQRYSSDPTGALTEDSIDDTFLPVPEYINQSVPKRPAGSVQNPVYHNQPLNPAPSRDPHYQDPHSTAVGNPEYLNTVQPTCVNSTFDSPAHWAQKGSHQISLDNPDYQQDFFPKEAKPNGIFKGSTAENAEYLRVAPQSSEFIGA

BTK [2] = target: T1, BTK; assay: BTK Ramos cellular assay (PLCγ2 phosphorylation); assay type: cell-based; conditions: Ramos cells, 1 hour compound, anti-IgM stimulation, p-PLCγ2; read-out: BTK Inhibition (IC50), BTK Ramos cellular inhibition
Procedure: Ramos cells were grown in suspension in T225 flasks, spun down, resuspended in 50 ml serum-free media and incubated for 1 hour. […] Ramos cells were incubated with compound for 1 hour, washed again and resuspended in 100 ul serum-free media. Cells were then stimulated with 1 μg of goat F(ab′)2 Anti-Human IgM and incubated on ice for 10 minutes to activate B cell receptor signaling pathways. After 10 minutes, the cells were washed once with PBS and then lysed on ice with Invitrogen Cell Extraction buffer. 16 μg total protein from lysates were loaded on gel and blots were probed for phosphorylation of the BTK substrate PLCγ2.

[3] = read-out: EGFR (wild type inhibition), EGFR wild type

T1 sequence (Q06187 whole entry): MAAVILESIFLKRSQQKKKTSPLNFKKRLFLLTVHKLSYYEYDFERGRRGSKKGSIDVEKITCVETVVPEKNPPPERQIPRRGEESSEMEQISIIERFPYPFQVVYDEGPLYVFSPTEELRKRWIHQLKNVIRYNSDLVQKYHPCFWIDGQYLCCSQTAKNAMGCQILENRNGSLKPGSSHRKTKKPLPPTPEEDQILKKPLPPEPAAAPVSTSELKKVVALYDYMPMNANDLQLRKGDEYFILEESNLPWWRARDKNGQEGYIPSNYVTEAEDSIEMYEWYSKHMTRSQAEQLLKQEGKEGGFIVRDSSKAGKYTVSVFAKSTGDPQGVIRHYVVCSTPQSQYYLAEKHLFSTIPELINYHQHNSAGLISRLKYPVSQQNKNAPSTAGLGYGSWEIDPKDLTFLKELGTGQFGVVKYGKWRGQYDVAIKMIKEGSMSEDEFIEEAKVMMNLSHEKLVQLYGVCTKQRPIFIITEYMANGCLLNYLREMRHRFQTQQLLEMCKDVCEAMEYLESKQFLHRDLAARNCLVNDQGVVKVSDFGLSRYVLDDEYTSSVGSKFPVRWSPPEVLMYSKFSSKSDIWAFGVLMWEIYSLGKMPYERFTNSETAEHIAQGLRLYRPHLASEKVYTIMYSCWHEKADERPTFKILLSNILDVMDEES

Row | Structure (SMILES) | IC50 (BTK [1]) | IC50 (ITK) | IC50 (EGFR-WT; [3]) | IC50 (BTK [2]) | IC50 (EGFR-WT)
1 | C=CC(=O)Nc1cccc(Nc2nc(Nc3cccc(OCC4CCCN(C)C4)c3)ncc2F)c1 (stereo not drawn) [Compound I-76, N-(3-(5-fluoro-2-(3-((1-methylpiperidin-3-yl)methoxy)phenylamino)pyrimidin-4-ylamino)phenyl)-acrylamide] | < 10 nM | < 10 nM | < 10 nM | – | –
2 | COCCOc1ccc(Nc2ncc(F)c(Nc3cccc(NC(=O)/C=C/CN4CC[C@H](O)C4)c3)n2)cc1 [Compound I-88, (S,E)-N-(3-(5-fluoro-2-(4-(2-methoxyethoxy)phenylamino)pyrimidin-4-ylamino)phenyl)-4-(3-hydroxypyrrolidin-1-yl)but-2-enamide] | < 10 nM | 10 to 100 nM | – | – | 10 to 100 nM
3 | COCCOc1ccc(Nc2ncc(F)c(Nc3cccc(NC(=O)/C=C/CN4CC[C@@H](O)C4)c3)n2)cc1 [Compound I-89, (R,E)-N-(3-(5-fluoro-2-(4-(2-methoxyethoxy)phenylamino)pyrimidin-4-ylamino)phenyl)-4-(3-hydroxypyrrolidin-1-yl)but-2-enamide] | < 10 nM | 10 to 100 nM | – | – | 10 to 100 nM
4 | C=CC(=O)Nc1cccc(Nc2nc(Nc3cccc(OC(C)(C)CO)c3)ncc2F)c1 [Compound I-91, N-(3-(5-fluoro-2-(3-(1-hydroxy-2-methylpropan-2-yloxy)phenylamino)pyrimidin-4-ylamino)phenyl)acrylamide] | < 10 nM | 10 to 100 nM | – | – | 10 to 100 nM
5 | C=CC(=O)N1CCc2ccc(Nc3nc(Nc4ccc(OCCOC)cc4)ncc3F)cc21 [Compound I-94, 1-(6-(5-fluoro-2-(4-(2-methoxyethoxy)phenylamino)pyrimidin-4-ylamino)indolin-1-yl)prop-2-en-1-one] | < 10 nM | 10 to 100 nM | – | – | 100 to 1000 nM
6 | C=CC(=O)Nc1cccc(Nc2nc(Nc3cccc(OCCCNC(=O)OC(C)(C)C)c3)ncc2F)c1 [Compound I-183, tert-butyl 3-(3-(4-(3-acrylamidophenylamino)-5-fluoropyrimidin-2-ylamino)phenoxy)propylcarbamate] | < 10 nM | 100 to 1000 nM | 1000 to 10000 nM | – | –
7 | C=C(C)C(=O)c1cccc(Nc2nc(Nc3cccc(OC(F)(F)F)c3)ncc2F)c1 [Compound I-199, 1-(3-(5-fluoro-2-(3-(trifluoromethoxy)phenylamino)pyrimidin-4-ylamino)phenyl)-2-methylprop-2-en-1-one] | < 10 nM | 10 to 100 nM | – | – | 10 to 100 nM
8 | C=CC(=O)Nc1cccc(Oc2nc(Nc3cccc(OC)c3)ncc2C(=O)Nc2ccccc2)c1 [Compound I-200, 4-(3-acrylamidophenoxy)-2-(3-methoxyphenylamino)-pyrimidine-5-carboxylic acid phenylamide] | < 10 nM | > 10000 nM | < 10 nM | – | –
9 | C=CC(=O)Nc1cccc(Nc2nc(Nc3cccc(OCCCNC(=O)CCCC[C@@H]4SC[C@@H]5NC(=O)N[C@@H]54)c3)ncc2C)c1 [Compound I-237, N-(3-(3-(4-(3-acrylamidophenylamino)-5-methylpyrimidin-2-ylamino)phenoxy)propyl)-5-((3aS,4S,6aR)-2-oxohexahydro-1H-thieno[3,4-d]imidazol-4-yl)pentanamide] | < 10 nM | < 10 nM | – | – | 10 to 100 nM
10 | C=C(C)C(=O)c1cccc(Nc2nc(Nc3ccc(OCCOC)c(F)c3)ncc2F)c1 [Compound I-322, 1-(3-(5-fluoro-2-(3-fluoro-4-(2-methoxyethoxy)phenylamino)pyrimidin-4-ylamino)phenyl)-2-methylprop-2-en-1-one] | < 10 nM | < 10 nM | – | – | 10 to 100 nM
11 | C=C(C)C(=O)c1ccc(Nc2nc(Nc3ccc(OCCOC)c(F)c3)ncc2F)cc1 [Compound I-324, 1-(4-(5-fluoro-2-(3-fluoro-4-(2-methoxyethoxy)phenylamino)pyrimidin-4-ylamino)phenyl)-2-methylprop-2-en-1-one] | < 10 nM | < 10 nM | – | – | 10 to 100 nM
12 | C=CC(=O)Nc1cccc(Nc2nc(Nc3ccc(OC(C)CO)c(F)c3)ncc2F)c1 (stereo not drawn) [Compound I-333, N-(3-(5-fluoro-2-(3-fluoro-4-(1-hydroxypropan-2-yloxy)phenylamino)pyrimidin-4-ylamino)phenyl)acrylamide] | < 10 nM | 10 to 100 nM | – | – | 10 to 100 nM
13 | C=CC(=O)Nc1cccc(Nc2nc(Nc3ccc(Cl)c(OC(C)(C)CO)c3)ncc2F)c1 [Compound I-336, N-(3-(2-(4-chloro-3-(1-hydroxy-2-methylpropan-2-yloxy)phenylamino)-5-fluoropyrimidin-4-ylamino)phenyl)acrylamide] | < 10 nM | 100 to 1000 nM | – | – | 100 to 1000 nM
14 | C=CC(=O)Nc1cccc(Nc2nc(Nc3ccc(Cl)c(OCC(O)CO)c3)ncc2F)c1 (stereo not drawn) [Compound I-353, N-(3-(2-(4-chloro-3-(2,3-dihydroxypropoxy)phenylamino)-5-fluoropyrimidin-4-ylamino)phenyl)acrylamide] | < 10 nM | 10 to 100 nM | – | – | 10 to 100 nM
15 | C=CC(=O)Nc1cccc(Nc2nc(Nc3ccc(Cl)c(O[C@H]4CCOC4)c3)ncc2F)c1 [Compound I-354, (S)—N-(3-(2-(4-chloro-3-(tetrahydrofuran-3-yloxy)phenylamino)-5-fluoropyrimidin-4-ylamino)phenyl)acrylamide] | < 10 nM | 100 to 1000 nM | – | – | 100 to 1000 nM
16 | C=CC(=O)Nc1cccc(Nc2nc(Nc3ccc(OCCOCCNC(=O)OC(C)(C)C)c(F)c3)ncc2F)c1 [Compound I-356, tert-butyl 2-(2-(4-(4-(3-acrylamidophenylamino)-5-fluoropyrimidin-2-ylamino)-2-fluorophenoxy)ethoxy)ethylcarbamate] | < 10 nM | 10 to 100 nM | – | – | 100 to 1000 nM
17 | C=CC(=O)Nc1cccc(Nc2nc(Nc3ccc(Cl)c(O[C@@H](C)CO)c3)ncc2F)c1 [Compound I-357, (S)—N-(3-(2-(4-chloro-3-(1-hydroxypropan-2-yloxy)phenylamino)-5-fluoropyrimidin-4-ylamino)phenyl)acrylamide] | < 10 nM | 10 to 100 nM | – | – | 100 to 1000 nM
18 | C=CC(=O)Nc1cccc(Nc2nc(Nc3ccc(OCCOCCOC)c(F)c3)ncc2F)c1 [Compound I-359, N-(3-(5-fluoro-2-(3-fluoro-4-(2-(2-methoxyethoxy)ethoxy)-phenylamino)pyrimidin-4-ylamino)phenyl)acrylamide] | < 10 nM | < 10 nM | – | – | 10 to 100 nM

The next lines start with the values.

Row | IC50 (BTK [1]) | IC50 (ITK) | IC50 (EGFR-WT; [3]) | IC50 (BTK [2]) | IC50 (EGFR-WT) | Structure (SMILES)
19 | < 10 nM | – | 1000 to 10000 nM | < 10 nM | – | C=CC(=O)Nc1cccc(Nc2nc(Nc3ccc(OCc4ccccn4)c(Cl)c3)ncc2F)c1 [Compound I-86, N-(3-(2-(3-chloro-4-(pyridin-2-ylmethoxy)phenylamino)-5-fluoropyrimidin-4-ylamino)phenyl)acrylamide]
20 | < 10 nM | – | – | < 10 nM | 10 to 100 nM | C=CC(=O)Nc1cc(Nc2nc(Nc3ccc(OCCOC)cc3)ncc2F)ccc1F [Compound I-87, N-(2-fluoro-5-(5-fluoro-2-(4-(2-methoxyethoxy)phenylamino)pyrimidin-4-ylamino)phenyl)acrylamide]
21 | < 10 nM | < 10 nM | < 10 nM | – | – | C=CC(=O)Nc1cccc(Nc2nc(Nc3ccc(OCC4CCN(C)CC4)cc3)ncc2F)c1 [Compound I-90, N-(3-(5-fluoro-2-(4-((1-methylpiperidin-4-yl)methoxy)phenylamino)pyrimidin-4-ylamino)phenyl)acrylamide]
22 | < 10 nM | < 10 nM | < 10 nM | – | – | C=CC(=O)Nc1cccc(Nc2nc(Nc3ccc4c(cnn4C)c3)ncc2F)c1 [Compound I-155]
23 | < 10 nM | 10 to 100 nM | – | – | 10 to 100 nM | C=CC(=O)Nc1cccc(Nc2nc(Nc3cccc(OCCCNC(=O)CCCC(=O)NCCCOCCOCCOCCCNC(=O)CCCC[C@H]4SC[C@H]5NC(=O)N[C@H]54)c3)ncc2C)c1 [Compound I-215, N^1-(3-(3-(4-(3-acrylamidophenylamino)-5-methylpyrimidin-2-ylamino)phenoxy)propyl)-N^5-(15-oxo-19-((3aR,4R,6aS)-2-oxohexahydro-1H-thieno[3,4-d]imidazol-4-yl)-4,7,10-trioxa-14-azanonadecyl)glutaramide]
24 | < 10 nM | < 10 nM | – | – | 10 to 100 nM | C=C(C)C(=O)Cc1ccc(Nc2nc(Nc3ccc(OCCOC)c(F)c3)ncc2F)cc1 [Compound I-329, 1-(4-(5-fluoro-2-(3-fluoro-4-(2-methoxyethoxy)phenylamino)pyrimidin-4-ylamino)phenyl)-3-methylbut-3-en-2-one]
25 | < 10 nM | 10 to 100 nM | – | – | 10 to 100 nM | C=CC(=O)Nc1cccc(Nc2nc(Nc3ccc(Cl)c(OC(C)CO)c3)ncc2F)c1 (stereo not drawn) [Compound I-337, N-(3-(2-(4-chloro-3-(1-hydroxypropan-2-yloxy)phenylamino)-5-fluoropyrimidin-4-ylamino)phenyl)acrylamide]
26 | < 10 nM | 10 to 100 nM | – | – | 10 to 100 nM | C=CC(=O)Nc1cccc(Nc2nc(Nc3ccc(OC[C@@H]4C[C@@H](O)CN4)c(F)c3)ncc2F)c1 [Compound I-355]
